This test concerns the target T1, Full-length (FL)-PRMT5-MEP50 enzyme complex (Homo sapiens, UniProt O14744).
T1 construct: Full-length (FL)-PRMT5-MEP50 enzyme complex (recombinant proteins from baculovirus-transfected Sf21 cells: FL-PRMT5; MW=73837 kDa and FL-MEP50; MW=38614); made in house; host or cells: baculovirus-transfected Sf21 insect cells
The test is described as follows: PRMT5-MEP50 Enzyme Methylation Assay. The test is classed as biochemical. The note with it: 1.0 nM PRMT5-MEP50, 75 nM biotinylated peptide, 15 μM SAM. The method in brief:
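Compound was pre-incubated 60 min at 37°C with 1.0 nM enzyme and 15 μM SAM (final) in 50 mM Bicine pH 8.0, then 75 nM biotinylated H4R3(Me1) peptide was added and reacted 150 min; twenty-point 1:2 titration from 100000 nM, 1% DMSO. Formic acid quench; SAMDI mass spectrometry measured Me1-to-Me2 conversion, EC50 by 4- or 7-parameter regression.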

Setting [1] is: one EC50: 4 parameters single site sigmoidal model, EC50 1: first value of 7 parameters biphasic model, read-out: Enzyme Methylation Assay (EC50 or EC50 1).
Setting [2] is: second EC50 of 7 parameters biphasic model, read-out: Enzyme Methylation Assay (EC50 2).

Where a name gives a salt, the structure may show the parent alone. Read-outs that look alike come from different tables or passages of the source.

As a reminder, the EC50 is the concentration at which the effect is half-maximal.

T1 sequence (O14744 whole entry): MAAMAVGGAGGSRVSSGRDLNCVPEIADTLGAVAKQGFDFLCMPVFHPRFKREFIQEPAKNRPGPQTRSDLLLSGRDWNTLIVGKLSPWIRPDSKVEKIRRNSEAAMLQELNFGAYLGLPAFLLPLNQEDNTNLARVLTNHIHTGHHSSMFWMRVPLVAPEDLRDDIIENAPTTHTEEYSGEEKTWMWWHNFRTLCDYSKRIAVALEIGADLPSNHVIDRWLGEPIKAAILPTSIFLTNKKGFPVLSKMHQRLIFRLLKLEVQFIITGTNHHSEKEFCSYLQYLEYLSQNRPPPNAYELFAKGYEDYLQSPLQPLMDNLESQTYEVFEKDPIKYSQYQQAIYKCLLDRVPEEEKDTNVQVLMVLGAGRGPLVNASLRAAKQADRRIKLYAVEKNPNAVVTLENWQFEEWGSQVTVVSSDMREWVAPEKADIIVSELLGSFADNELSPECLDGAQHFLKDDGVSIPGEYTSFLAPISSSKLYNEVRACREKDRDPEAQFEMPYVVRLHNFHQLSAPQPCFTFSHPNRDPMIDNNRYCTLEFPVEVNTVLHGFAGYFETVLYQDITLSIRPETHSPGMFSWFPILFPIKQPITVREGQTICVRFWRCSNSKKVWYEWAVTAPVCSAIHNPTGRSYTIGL
T1 sequence (Q9BQA1 whole entry partner): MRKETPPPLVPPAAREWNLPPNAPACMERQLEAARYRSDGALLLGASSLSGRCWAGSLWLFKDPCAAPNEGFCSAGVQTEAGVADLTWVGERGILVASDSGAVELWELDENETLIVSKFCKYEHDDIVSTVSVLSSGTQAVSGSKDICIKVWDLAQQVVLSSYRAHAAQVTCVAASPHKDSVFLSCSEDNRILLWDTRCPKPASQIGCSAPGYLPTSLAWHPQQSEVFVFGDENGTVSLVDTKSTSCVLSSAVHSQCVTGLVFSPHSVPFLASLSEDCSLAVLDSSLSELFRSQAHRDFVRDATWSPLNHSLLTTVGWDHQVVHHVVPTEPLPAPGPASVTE

Turning to `CNc1ncnc2c1ccn2[C@@H]1C[C@H](COc2ccc3cc(Br)c(N)nc3c2)[C@@](C)(O)[C@H]1O` [Example 93, (1R,2S,3R,5R)-5-(((2-amino-3-bromoquinolin-7-yl)oxy)methyl)-1-methyl-3-(4-(methylamino)-7H-pyrrolo[2,3-d]pyrimidin-7-yl)cyclopentane-1,2-diol], the EC50 is, setting by setting: under setting [1], 0.5 nM; under setting [2], 110 nM.
As for `Cc1nc(C)c2ccn([C@@H]3O[C@@H]4[C@@H](Oc5ccc6cc(Br)c(N)nc6c5)CC[C@]4(O)[C@H]3O)c2n1` [Example 80, (2R,3R,3aS,6S,6aR)-6-((2-amino-3-bromoquinolin-7-yl)oxy)-2-(2,4-dimethyl-7H-pyrrolo[2,3-d]pyrimidin-7-yl)hexahydro-3aH-cyclopenta[b]furan-3,3a-diol 2,2,2-trifluoroacetate], the EC50 under setting [1] came to 2.9 nM.
Take `Cc1cc2ccc(C[C@@H]3CC[C@@]4(O)[C@@H]3O[C@@H](n3ccc5c(N)ncnc53)[C@@H]4O)cc2nc1N` [Example 125, (2R,3R,3aS,6S,6aR)-6-((2-amino-3-methylquinolin-7-yl)methyl)-2-(4-amino-7H-pyrrolo[2,3-d]pyrimidin-7-yl)hexahydro-3aH-cyclopenta[b]furan-3,3a-diol]: the EC50 under setting [1] amounted to 0.8 nM.
With `Cc1cn([C@@H]2C[C@@H]3[C@H](Cc4cc(F)c5cc(F)c(N)nc5c4)CC[C@]3(O)[C@H]2O)c2ncnc(N)c12` [Example 35, (1S,2R,3aR,4S,6aR)-4-[(2-amino-3,5-difluoroquinolin-7-yl)methyl]-2-(4-amino-5-methyl-7H-pyrrolo[2,3-d]pyrimidin-7-yl)hexahydropentalene-1,6a(1H)-diol], under setting [1], the EC50 came to 0.5 nM.
Take `Cc1ncnc2c1ccn2[C@@H]1C[C@@H]2[C@H](Cc3ccc4cc(Cl)c(N)nc4c3)CC[C@]2(O)[C@H]1O` [Example 17, (1S,2R,3aR,4S,6aR)-4-((2-amino-3-chloroquinolin-7-yl)methyl)-2-(4-methyl-7H-pyrrolo[2,3-d]pyrimidin-7-yl)hexahydropentalene-1,6a(1H)-diol]: the EC50 under setting [1] stood at 0.3 nM.
On the same count and under the same terms, the figure for `Nc1nc2cc(C[C@@H]3CC[C@@]4(O)[C@@H]3O[C@@H](n3ccc5c(N)ncnc53)[C@@H]4O)cc(F)c2cc1Cl` [Example 21, (2R,3R,3aS,6S,6aR)-6-[(2-amino-3-chloro-5-fluoroquinolin-7-yl)methyl]-2-(4-amino-7H-pyrrolo[2,3-d]pyrimidin-7-yl)hexahydro-3aH-cyclopenta[b]furan-3,3a-diol] is 0.8 nM.
For the compound `Cc1ncnc2c1ccn2[C@@H]1C[C@@H]2[C@H](Cc3ccc4cc(F)c(N)nc4c3)CC[C@]2(O)[C@H]1O` [Example 16, (1S,2R,3aR,4S,6aR)-4-((2-amino-3-fluoroquinolin-7-yl)methyl)-2-(4-methyl-7H-pyrrolo[2,3-d]pyrimidin-7-yl)hexahydropentalene-1,6a(1H)-diol], the EC50 under setting [1] worked out at 0.4 nM.
With `Cc1nc(N)nc2c1ccn2[C@@H]1O[C@@H]2[C@@H](Oc3ccc4cc(Br)c(N)nc4c3)CC[C@]2(O)[C@H]1O` [Example 114, (2R,3R,3aS,6S,6aR)-6-((2-amino-3-bromoquinolin-7-yl)oxy)-2-(2-amino-4-methyl-7H-pyrrolo[2,3-d]pyrimidin-7-yl)hexahydro-3aH-cyclopenta[b]furan-3,3a-diol], the EC50 under setting [1] came out at 1.4 nM.
On the same count and under the same terms, the figure for `CNc1ncnc2c1ccn2[C@@H]1C[C@@H]2[C@H](Cc3ccc4cc(Br)c(N)nc4c3)CC[C@]2(O)[C@H]1O` [Example 97, (1S,2R,3aR,4S,6aR)-4-((2-amino-3-bromoquinolin-7-yl)methyl)-2-(4-(methylamino)-7H-pyrrolo[2,3-d]pyrimidin-7-yl)hexahydropentalene-1,6a(1H)-diol] is 0.4 nM.
In the case of `Nc1nc2cc(C[C@H]3[C@H]4O[C@@H](n5cc(F)c6c(N)ncnc65)[C@H](O)[C@@]4(O)C[C@@H]3F)ccc2cc1F` [Example 55, (2R,3R,3aS,5S,6S,6aR)-2-(4-amino-5-fluoro-7H-pyrrolo[2,3-d]pyrimidin-7-yl)-6-[(2-amino-3-fluoroquinolin-7-yl)methyl]-5-fluorohexahydro-3aH-cyclopenta[b]furan-3,3a-diol, 2,2,2-trifluoroethanol], the concentration giving a half-maximal response (EC50) stood at 0.5 nM under setting [1] and 191 nM under setting [2].
On to `Nc1nc2cc(C[C@H]3[C@H]4O[C@@H](n5ccc6c(N)ncnc65)[C@H](O)[C@@]4(O)CC3(F)F)ccc2cc1F` [Example 53, (2R,3R,3aS,6S,6aR)-6-[(2-amino-3-fluoroquinolin-7-yl)methyl]-2-(4-amino-7H-pyrrolo[2,3-d]pyrimidin-7-yl)-5,5-difluorohexahydro-3aH-cyclopenta[b]furan-3,3a-diol], for which, under setting [1], the EC50 was determined as 0.3 nM.
The same measure, in the same setting: the figure for `Cc1ncnc2c1ccn2[C@@H]1O[C@@H]2[C@@H](Nc3ccc4cc(F)c(N)nc4c3)CC[C@]2(O)[C@H]1O` [Example 120, (2R,3R,3aS,6S,6aR)-6-((2-amino-3-fluoroquinolin-7-yl)amino)-2-(4-methyl-7H-pyrrolo[2,3-d]pyrimidin-7-yl)hexahydro-3aH-cyclopenta[b]furan-3,3a-diol] is 0.6 nM; for `Nc1nc2cc(O[C@H]3CC[C@@]4(O)[C@@H]3O[C@@H](n3ccc5c(Cl)ncnc53)[C@@H]4O)ccc2cc1Br` [Example 5, (2R,3R,3aS,6S,6aR)-6-((2-amino-3-bromoquinolin-7-yl)oxy)-2-(4-chloro-7H-pyrrolo[2,3-d]pyrimidin-7-yl)hexahydro-2H-cyclopenta[b]furan-3,3a-diol] it is 0.8 nM.
For the compound `C[C@@]1(O)[C@@H](COc2ccc3cc(Br)c(N)nc3c2)C[C@@H](n2ccc3c(Cl)ncnc32)[C@@H]1O` [Example 1, (1R,2S,3R,5R)-5-(((2-amino-3-bromoquinolin-7-yl)oxy)methyl)-3-(4-chloro-7H-pyrrolo[2,3-d]pyrimidin-7-yl)-1-methylcyclopentane-1,2-diol], the EC50 is, setting by setting: under setting [1], 0.5 nM; under setting [2], 56 nM.
In the same order, the values of `C[C@@]1(O)[C@@H](CCc2ccc3cc(Br)c(N)nc3c2)C[C@@H](n2ccc3c(N)ncnc32)[C@@H]1O` [Example 103, (1R,2S,3R,5S)-5-(2-(2-amino-3-bromoquinolin-7-yl)ethyl)-3-(4-amino-7H-pyrrolo[2,3-d]pyrimidin-7-yl)-1-methylcyclopentane-1,2-diol] are 0.4 nM and 40.7 nM.
As to `Nc1nc2nc(C[C@@H]3CC[C@@]4(O)[C@@H]3O[C@@H](n3ccc5c(N)ncnc53)[C@@H]4O)ccc2cc1Cl` [Example 28, (2R,3R,3aS,6S,6aR)-6-((7-amino-6-chloro-1,8-naphthyridin-2-yl)methyl)-2-(4-amino-7H-pyrrolo[2,3-d]pyrimidin-7-yl)hexahydro-3aH-cyclopenta[b]furan-3,3a-diol trihydrochloride], under setting [1], the EC50 is 0.8 nM.
Regarding `Nc1nc2cc(C[C@@H]3CC[C@@]4(O)[C@@H]3O[C@@H](n3ccc5c(N)ncnc53)[C@@H]4O)cc(F)c2cc1F` [Example 29, (2R,3R,3aS,6S,6aR)-6-[(2-amino-3,5-difluoroquinolin-7-yl)methyl]-2-(4-amino-7H-pyrrolo[2,3-d]pyrimidin-7-yl)hexahydro-3aH-cyclopenta[b]furan-3,3a-diol], under setting [1], the EC50 was 0.3 nM.
For `Nc1nc2cc(C[C@@H]3OC[C@@]4(O)[C@@H]3O[C@@H](n3ccc5c(N)ncnc53)[C@@H]4O)ccc2cc1Br` [Example 136, (2R,3R,3aS,6S,6aR)-6-((2-amino-3-bromoquinolin-7-yl)methyl)-2-(4-amino-7H-pyrrolo[2,3-d]pyrimidin-7-yl)tetrahydrofuro[3,4-b]furan-3,3a(4H)-diol], the EC50 under setting [1] came out at 0.5 nM.
For the compound `Nc1nc2cc(C[C@H]3[C@H]4O[C@@H](n5ccc6c(N)ncnc65)[C@H](O)[C@@]4(O)C[C@@H]3F)ccc2cc1F` [Example 54, (2R,3R,3aS,5S,6S,6aR)-6-[(2-amino-3-fluoroquinolin-7-yl)methyl]-2-(4-amino-7H-pyrrolo[2,3-d]pyrimidin-7-yl)-5-fluorohexahydro-3aH-cyclopenta[b]furan-3,3a-diol], the EC50 under setting [1] is 0.3 nM.
As for `Cc1ncnc2c1ccn2[C@@H]1O[C@@H]2[C@@H](Oc3ccc4cc(C(F)F)c(N)nc4c3)CC[C@]2(O)[C@H]1O` [Example 115, (2R,3R,3aS,6S,6aR)-6-((2-amino-3-(difluoromethyl)quinolin-7-yl)oxy)-2-(4-methyl-7H-pyrrolo[2,3-d]pyrimidin-7-yl)hexahydro-3aH-cyclopenta[b]furan-3,3a-diol], the EC50 came to 0.4 nM under setting [1] and 255 nM under setting [2].
On to `Nc1nc2c(F)c(C[C@@H]3CC[C@@]4(O)[C@@H]3O[C@@H](n3ccc5c(N)ncnc53)[C@@H]4O)ccc2cc1F` [Example 20, (2R,3R,3aS,6S,6aR)-6-[(2-amino-3,8-difluoroquinolin-7-yl)methyl]-2-(4-amino-7H-pyrrolo[2,3-d]pyrimidin-7-yl)hexahydro-3aH-cyclopenta[b]furan-3,3a-diol], for which, under setting [1], the EC50 amounted to 0.5 nM.
Consider `Cc1ncnc2c1ccn2[C@@H]1O[C@@H]2[C@H](Cc3cnc4cc(F)c(N)nc4c3)CC[C@]2(O)[C@H]1O` [Example 25, (2R,3R,3aS,6S,6aR)-6-((6-amino-7-fluoro-1,5-naphthyridin-3-yl)methyl)-2-(4-methyl-7H-pyrrolo[2,3-d]pyrimidin-7-yl)hexahydro-3aH-cyclopenta[b]furan-3,3a-diol, 3HCl], for which the EC50 under setting [1] was determined as 11 nM and the EC50 under setting [2] came out at 8910 nM.
